Laboratory results as given in patent US8435978B2, “Substituted sulfonamide compounds” (Gruenenthal GmbH, priority 2006, dated 2013).

Columns and labels:
human B1R receptor = molecular target: T1, human B1R receptor (Homo sapiens, UniProt P46663); test: Functional study on the bradykinin receptor 1 (B1R), FLIPR Ca2+ assay, hB1R cells; assay type: cell-based; details: agonist Lys-Des-Arg9-bradykinin 0.5 nM, % inhibition compared with the maximum achievable inhibition; for B1R Antagonism, human [10 μM] % Inhibition: test substance 10 μM, hB1R CHO K1 cells; for inhibition at 10 µM: CHO-K1, test substance 10 μM, read-out: B1R Antagonism, human [10 μM] % Inhibition
T1 construct: host or cells: CHO K1 cells (Chinese hamster ovary), stably transfected
T1 sequence (P46663 1-353): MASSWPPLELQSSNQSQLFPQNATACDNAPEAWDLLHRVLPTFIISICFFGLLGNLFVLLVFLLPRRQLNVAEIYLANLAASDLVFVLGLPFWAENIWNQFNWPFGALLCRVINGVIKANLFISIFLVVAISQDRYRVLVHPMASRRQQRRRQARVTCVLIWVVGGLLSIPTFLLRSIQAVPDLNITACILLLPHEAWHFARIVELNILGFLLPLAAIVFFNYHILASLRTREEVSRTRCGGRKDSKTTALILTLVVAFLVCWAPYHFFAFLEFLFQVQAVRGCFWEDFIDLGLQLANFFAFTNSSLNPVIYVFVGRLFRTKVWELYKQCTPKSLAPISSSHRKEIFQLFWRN
Procedure: (§1) The agonistic or antagonistic action of substances can be quantified on the bradykinin receptor 1 (B1R) of the species human and rat with ectopically expressing cell lines (CHO K1 cells) and with the aid of a Ca^2+-sensitive dye (Fluo-4) using a fluorescent imaging plate reader (FLIPR). The indication in % activation is based on the Ca^2+ signal after addition of Lys-Des-Arg^9-bradykinin (0.5 nM) or Des-Arg^9-bradykinin (100 nM). Antagonists result in a suppression of the Ca^2+ influx following administration of the agonist. The % inhibition in comparison with the maximum achievable inhibition is indicated.
(§2) The agonistic or antagonistic action of substances can be determined on the bradykinin receptor 1 (B1R) of the species human and rat using the following assay. According to this assay, the Ca^2+ influx through the channel is quantified with the aid of a Ca^2+-sensitive dye (type Fluo-4, Molecular Probes Europe BV, Leiden, Netherlands) using a Fluorescent Imaging Plate Reader (FLIPR, Molecular Devices, Sunnyvale, USA).
(§3) Chinese hamster ovary cells (CHO K1 cells) which have been stably transfected with the human B1R gene (hB1R cells, Euroscreen s.a., Gosselies, Belgium) or with the B1R gene of the rat (rB1R cells, Axxam, Milan, Italy) are used. For functional studies, the cells are plated out on black 96-well plates having a clear base (BD Biosciences, Heidelberg, Germany) in a density of 20,000-25,000 cells/well. The cells are incubated overnight at 37° C. and with 5% CO2 in culture medium (hB1R cells: Nutrient Mixture Ham's F12, Gibco Invitrogen GmbH, Karlsruhe, Germany; rB1R cells: D-MEM/F12, Gibco Invitrogen GmbH, Karlsruhe, Germany), with 10 vol. % FBS (fetal bovine serum, Gibco Invitrogen GmbH, Karlsruhe, Germany). On the following day, the cells are loaded for 60 minutes at 37° C. with 2.13 μM Fluo-4 (Molecular Probes Europe BV, Leiden, Netherlands) in HBSS buffer (Hank's buffered saline solution, Gibco Invitrogen GmbH, Karlsruhe, Germany) […] (Sigma-Aldrich, Taufkirchen, Germany) and 10 mM HEPES (Sigma-Aldrich, Taufkirchen, Germany). The plates are then washed twice with HBSS buffer, and HBSS buffer additionally containing 0.1% BSA (bovine serum albumin; Sigma-Aldrich, Taufkirchen, Germany), 5.6 mM glucose and 0.05% gelatin (Merck KGaA, Darmstadt, Germany) is added to the plates. After incubation for a further 20 minutes at room temperature, the plates are inserted into the FLIPR for Ca^2+ measurement. The Ca^2+-dependent fluorescence is measured before and after the addition of substances (λex=488 nm, λem=540 nm). Quantification is carried out by measuring the highest fluorescence intensity (FC, fluorescence counts) over time.
(§4) The FLIPR protocol consists of 2 substance additions. Test substances (10 μM) are first pipetted onto the cells and the Ca^2+ influx is compared with the control (hB1R: Lys-Des-Arg^9-bradykinin 0.5 nM; rB1R: Des-Arg^9-bradykinin 100 nM). This gives the activation in %, based on the Ca^2+ signal after addition of Lys-Des-Arg^9-bradykinin (0.5 nM) or Des-Arg^9-bradykinin (100 nM).
(§5) After 10 minutes' incubation, 0.5 nM Lys-Des-Arg^9-bradykinin (hB1R) or 100 nM Des-Arg^9-bradykinin (rB1R) are applied, and the influx of Ca^2+ is likewise determined. Antagonists lead to suppression of the Ca^2+ influx. The % inhibition compared with the maximum achievable inhibition is calculated.

B1R receptor of the rat = molecular target: T2, B1R receptor of the rat (Rattus norvegicus, UniProt P97583); test: Functional study on the bradykinin receptor 1 (B1R), FLIPR Ca2+ assay, rB1R cells; assay type: cell-based; details: agonist Des-Arg9-bradykinin 100 nM, % inhibition compared with the maximum achievable inhibition; for B1R Antagonism, rat [10 μM] % Inhibition: test substance 10 μM, rB1R CHO K1 cells; for inhibition at 10 µM: CHO-K1, test substance 10 μM, read-out: B1R Antagonism, rat [10 μM] % Inhibition
T2 construct: host or cells: CHO K1 cells (Chinese hamster ovary), stably transfected
T2 sequence (P97583 1-337): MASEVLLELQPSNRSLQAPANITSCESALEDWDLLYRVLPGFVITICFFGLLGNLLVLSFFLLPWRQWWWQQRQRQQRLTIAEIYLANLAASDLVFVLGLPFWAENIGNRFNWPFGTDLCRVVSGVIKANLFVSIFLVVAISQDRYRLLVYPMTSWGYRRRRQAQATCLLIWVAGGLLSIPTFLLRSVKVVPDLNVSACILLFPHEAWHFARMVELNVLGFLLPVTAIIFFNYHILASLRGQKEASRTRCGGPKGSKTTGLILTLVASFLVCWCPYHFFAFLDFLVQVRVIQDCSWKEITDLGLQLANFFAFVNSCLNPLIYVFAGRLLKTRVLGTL
Procedure: as §1, §2, §3, §4, §5

Compound | B1R Antagonism, human [10 μM] % Inhibition (human B1R receptor) | B1R Antagonism, rat [10 μM] % Inhibition (B1R receptor of the rat) | inhibition at 10 µM (human B1R receptor) | inhibition at 10 µM (B1R receptor of the rat)
COc1cc(C)c(S(=O)(=O)N2CCCC2COCC(=O)NCc2ccc(CN3CCCCC3)cc2)c(C)c1 (stereo not shown) [Example 1, 2-[1-(4-methoxy-2,6-dimethyl-phenylsulfonyl)-pyrrolidin-2-ylmethoxy]-N-(4-piperidin-1-ylmethyl-benzyl)-acetamide] |  |  | 105% | 107%
COc1cc(C)c(S(=O)(=O)N2CCCCC2COCC(=O)NCc2ccc(CN3CCCCC3)cc2)c(C)c1 (stereo not shown) [Example 2, 2-[1-(4-methoxy-2,6-dimethyl-phenylsulfonyl)-piperidin-2-ylmethoxy]-N-(4-piperidin-1-ylmethyl-benzyl)-acetamide] |  |  | 104% | 87.4%
COc1cc(C)c(S(=O)(=O)N2CCCCC2COCC(=O)NCc2ccc(N3CCN(C)CC3)cc2)c(C)c1 (stereo not shown) [Example 3, 2-[1-(4-methoxy-2,6-dimethyl-phenylsulfonyl)-piperidin-2-ylmethoxy]-N-[4-(4-methyl-piperazin-1-yl)-benzyl]-acetamide] | 103.84% | 108.97% |  | 
O=C(COCC1CCCCN1S(=O)(=O)c1c(Cl)cc(Cl)cc1Cl)NCc1ccc(CN2CCCCC2)cc1 (stereo not shown) [Example 4, N-(4-piperidin-1-ylmethyl-benzyl)-2-[1-(2,4,6-trichloro-phenylsulfonyl)-piperidin-2-ylmethoxy]-acetamide] |  |  | 104% | 106%
Cc1cc(C)c(S(=O)(=O)N2Cc3ccccc3CC2COCC(=O)N2CCN(C3CCN(C)CC3)CC2)c(C)c1 (stereo not shown) [Example 5, 1-[4-(1-methyl-piperidin-4-yl)-piperazin-1-yl]-2-[2-(2,4,6-trimethyl-phenylsulfonyl)-1,2,3,4-tetrahydro-isoquinolin-3-ylmethoxy]-ethanone] |  |  | 103% | 103%
O=C(COCC1CCCCN1S(=O)(=O)c1cccc2ccccc12)N1CCCN(Cc2ccccc2)CC1 (stereo not shown) [Example 6, 1-(4-benzyl-[1,4]diazepan-1-yl)-2-[1-(naphthyl-1-sulfonyl)-piperidin-2-ylmethoxy]-ethanone] | 102.21% | 94.88% |  | 
COc1cc(C)c(S(=O)(=O)N2CCCCC2COCC(=O)NCc2ccc(CN3CCN(C)CC3)cc2)c(C)c1 (stereo not shown) [Example 7, 2-[1-(4-methoxy-2,6-dimethyl-phenylsulfonyl)-piperidin-2-ylmethoxy]-N-[4-(4-methyl-piperazin-1-ylmethyl)-benzyl]-acetamide] |  |  | 102% | 99.3%
O=C(COCC1Cc2ccccc2CN1S(=O)(=O)c1ccc(Cl)cc1Cl)N1CCC(N2CCCCC2)CC1 (stereo not shown) [Example 9, 1-(1,4′-bipiperidin-1′-yl)-2-((2-(2,4-dichlorophenylsulfonyl)-1,2,3,4-tetrahydro-isoquinolin-3-yl)methoxy)ethanone] |  |  | 102% | 85.3%
O=C(COCC1CCCN1S(=O)(=O)c1c(Cl)cc(Cl)cc1Cl)NCc1ccc(CN2CCCCC2)cc1 (stereo not shown) [Example 10, N-(4-piperidin-1-ylmethyl-benzyl)-2-[1-(2,4,6-trichloro-phenylsulfonyl)-pyrrolidin-2-ylmethoxy]-acetamide] |  |  | 100% | 91.8%

Next, values leading:

B1R Antagonism, human [10 μM] % Inhibition (human B1R receptor) | B1R Antagonism, rat [10 μM] % Inhibition (B1R receptor of the rat) | inhibition at 10 µM (human B1R receptor) | inhibition at 10 µM (B1R receptor of the rat) | Compound
65.25% | 103.41% |  |  | 1-(4-(3-chloro-5-(trifluoromethyl)pyridin-2-yl)piperazin-1-yl)-2-((1-(2,6-dichlorophenylsulfonyl)piperidin-2-yl)methoxy)ethanone [Example 485]
98.07% | 95.62% |  |  | 2-((1-(2,6-dichlorophenylsulfonyl)piperidin-2-yl)methoxy)-N-(2-(piperidin-1-yl)ethyl)acetamide [Example 440]
103.96% | 98.36% |  |  | 2-((1-(2,6-dichlorophenylsulfonyl)piperidin-2-yl)methoxy)-N-(4-(dimethylamino)butyl)acetamide [Example 441]
 |  | 99.6% | 106% | COc1cc(C)c(S(=O)(=O)N2CCCCC2COCC(=O)NCc2ccc(CN(C)C)cc2)c(C)c1 (stereo not shown) [Example 11, N-(4-dimethylaminomethyl-benzyl)-2-[1-(4-methoxy-2,6-dimethyl-phenylsulfonyl)-piperidin-2-ylmethoxy]-acetamide]
 |  | 48.8% |  | COc1ccc(S(=O)(=O)N2CCCCC2CCOCC(=O)N2CCN(CCc3ccccc3)CC2)cc1 (stereo not shown) [Example 91, 2-(2-(1-(4-methoxyphenylsulfonyl)piperidin-2-yl)ethoxy)-1-(4-phenethylpiperazin-1-yl)ethanone]
 |  | 100% |  | CN(C(=O)COCC1CCCCN1S(=O)(=O)c1ccccc1C(F)(F)F)[C@H]1CCN(Cc2ccccc2)C1 (stereo partly drawn) [Example 218, N—((S)-1-benzylpyrrolidin-3-yl)-N-methyl-2-((1-(2-(trifluoromethyl)phenylsulfonyl)piperidin-2-yl)methoxy)acetamide]
 |  |  | 99% | CN1CCN(C2CCN(C(=O)COCC3CCCCN3S(=O)(=O)c3csc4ccccc34)CC2)CC1 (stereo not shown) [Example 572, 2-((1-(benzo[b]thiophen-3-ylsulfonyl)piperidin-2-yl)methoxy)-1-(4-(4-methylpiperazin-1-yl)piperidin-1-yl)ethanone]
 |  |  | 101% | CN1CCC(CN2CCN(C(=O)COCC3CCCCN3S(=O)(=O)c3csc4ccccc34)CC2)CC1 (stereo not shown) [Example 573, 2-((1-(benzo[b]thiophen-3-ylsulfonyl)piperidin-2-yl)methoxy)-1-(4-((1-methylpiperidin-4-yl)methyl)piperazin-1-yl)ethanone]
 |  | 90% |  | CN(C(=O)COCC1CCCCN1S(=O)(=O)c1c(Cl)cc(C(F)(F)F)cc1Cl)[C@H]1CCN(Cc2ccccc2)C1 (stereo partly drawn) [Example 574, N—((S)-1-benzylpyrrolidin-3-yl)-2-((1-(2,6-dichloro-4-(trifluoromethyl)phenylsulfonyl)piperidin-2-yl)methoxy)-N-methylacetamide]
